Data: ChEMBL document CHEMBL6103565, “Current strategies in design and synthesis of antifungals hybrid and chimeric diazine derivatives” (Bioorg Med Chem, 2025)
Values after ≈ are worked out from the molar mass of the structure shown.

Key:
Botrytis cinerea = test: Antifungal activity against Botrytis cinerea assessed as reduction in fungal growth at 50 ug/ml relative to control; type: functional
Aspergillus fumigatus = test: Antifungal activity against Aspergillus fumigatus assessed as zone of inhibition; type: functional
Candida albicans [1] = test: Antifungal activity against Candida albicans assessed as zone of inhibition by serial dilution and disc diffusion method; type: functional
Saccharomyces cerevisiae [2] = test: Antimicrobial activity against Saccharomyces cerevisiae assessed as zone of inhibition; type: functional
Botryosphaeria dothidea = test: Antifungal activity against Botryosphaeria dothidea assessed as reduction in fungal growth at 50 ug/ml relative to control; type: functional
Trichophyton rubrum = test: Antifungal activity against Trichophyton rubrum assessed as diameter of zone inhibition; type: functional
Candida albicans [3] = test: Antifungal activity against Candida albicans NRRL-Y477 assessed as zone of inhibition by disc diffusion method; type: functional
Aspergillus niger [4] = test: Antifungal activity against Aspergillus niger assessed as zone of inhibition by disc diffusion method; type: functional
Candida albicans [5] = test: Antifungal activity against Candida albicans assessed as zone of inhibition by disc diffusion method; type: functional
Saccharomyces cerevisiae [6] = test: Antimicrobial activity against Saccharomyces cerevisiae assessed as zone of inhibition by disc diffusion method; type: functional
Candida albicans [7] = test: Antifungal activity against Candida albicans assessed as diameter of zone inhibition; type: functional
Candida albicans [8] = test: Antifungal activity against Candida albicans ATCC 10231; type: functional
Pichia kudriavzevii = test: Antifungal activity against Candida krusei ATCC 6258; type: functional
Candida parapsilosis = test: Antifungal activity against Candida parapsilosis ATCC 22019; type: functional; conditions: Lodderomyces parapsilosis
Nakaseomyces glabratus = test: Antifungal activity against Candida glabrata ATCC 90030; type: functional
Geotrichum candidum = test: Antifungal activity against Geotrichum candidum; type: functional
Candida albicans [9] = test: Antifungal activity against Candida albicans MTCC 227 by disc diffusion method; type: functional, organism-based
Aspergillus niger [10] = test: Antifungal activity against Aspergillus niger MTCC 282 by disc diffusion method; type: functional, organism-based
[11] = tested on: Syncephalastrum racemosum; test: Antifungal activity against Syncephalastrum racemosum assessed as zone of inhibition; type: functional
Candida albicans [12] = test: Antifungal activity against Candida albicans assessed as reduction in fungal growth incubated for 48 hrs by broth micro-dilution method; type: functional
Candida albicans [13] = test: Antimicrobial activity against Candida albicans ATCC 64124 assessed as reduction in microbial growth by CLSI protocol based micro-broth dilution method; type: functional
Aspergillus flavus = test: Antimicrobial activity against Aspergillus flavus assessed as zone of inhibition; type: functional

Cc1nc(Oc2ccc(C(=O)Nc3ccc(Br)c(Cl)c3)cc2)cc(C(F)(F)F)n1 gave an inhibition at 50 µg/mL (Botrytis cinerea) of 83.8%.

CCc1nnc2c(Nc3ccc(C4=NN(c5ccccc5)C(c5ccc(Cl)cc5)C4)cc3)nc3ccccc3n12 (stereo not drawn) was tested, and the “inhibition zone (IZ)” value (Aspergillus fumigatus) was 21 mm.

With COc1ccc(/C=N/Nc2ncnc3[nH]ccc23)cc1 the “inhibition zone (IZ)” value (Candida albicans [1]) was 30 mm and the “inhibition zone (IZ)” value (Saccharomyces cerevisiae [2]) was 24 mm.

O=C(Nc1ccc(F)cc1)c1ccc(Oc2cc(C(F)(F)F)ncn2)cc1 was tested, and the inhibition at 50 µg/mL (Botryosphaeria dothidea) was 89.8% and the inhibition at 50 µg/mL (Botrytis cinerea) was 90.3%.

With Oc1nnc(-c2ccccc2Cl)cc1Br the “inhibition zone (IZ)” value (Trichophyton rubrum) was 14 mm.

For COc1ccc(/C=N/Nc2ncnc3[nH]ccc23)c(OC)c1, the “inhibition zone (IZ)” value (Candida albicans [1]) was 30 mm and the “inhibition zone (IZ)” value (Saccharomyces cerevisiae [2]) was 24 mm.

With CCOC(=O)c1c(C)nc2sc3c(SCC(=O)Nc4ccc(C)cc4)ncnc3c2c1-c1cccs1 the “inhibition zone (IZ)” value (Candida albicans [3]) was 25 mm and the “inhibition zone (IZ)” value (Aspergillus niger [4]) was 24 mm.

O=[N+]([O-])c1ccc(/C=N/c2ncnc3[nH]ccc23)cc1 was tested, and the “inhibition zone (IZ)” value (Candida albicans [5]) was 15 mm and the “inhibition zone (IZ)” value (Saccharomyces cerevisiae [6]) was 13 mm.

For Cc1cccc(-c2nc3ccccc3nc2N2CCN(Cc3ccccc3)CC2)c1, the “inhibition zone (IZ)” value (Candida albicans [7]) was 14 mm.

For Cc1nc2ccccc2nc1NNC(=O)c1ccc(N)cc1, the MIC50 (Candida albicans [8]) was 0.78 µg/mL (≈ 2.66 µM), the MIC (Pichia kudriavzevii) was 0.78 µg/mL (≈ 2.66 µM) and the MIC (Candida parapsilosis) was 0.78 µg/mL (≈ 2.66 µM). For the same molecule, the MIC (Nakaseomyces glabratus) was 0.78 µg/mL (≈ 2.66 µM).

With Cc1nc2ccccc2nc1N1CC(C(=O)O)=CC1=O the MIC50 (Candida albicans [8]) was 0.78 µg/mL (≈ 2.9 µM), the MIC (Pichia kudriavzevii) was 0.78 µg/mL (≈ 2.9 µM) and the MIC (Candida parapsilosis) was 0.78 µg/mL (≈ 2.9 µM). For the same molecule, the MIC (Nakaseomyces glabratus) was 0.78 µg/mL (≈ 2.9 µM).

For COc1cccc(/C=N/Nc2ncnc3[nH]ccc23)c1, the “inhibition zone (IZ)” value (Candida albicans [1]) was 30 mm and the “inhibition zone (IZ)” value (Saccharomyces cerevisiae [2]) was 24 mm.

In the case of COC(=O)C1C(C(=O)OC)C(C(=O)c2ccccc2)N2N=C(c3ccc(Cl)cc3)C=CC12 (stereo not drawn), the “inhibition zone (IZ)” value (Candida albicans [7]) is reported as 25 mm.

In the case of COc1ccccc1/C=N/Nc1ncnc2[nH]ccc12, the “inhibition zone (IZ)” value (Candida albicans [1]) is reported as 30 mm.

Cc1nn(-c2ccccc2)c2nc3sc4c(c3nc12)N=C(N)COC4=O gave an MIC (Geotrichum candidum) of 4 µg/mL (≈ 11 µM).

Molecule CC(=O)N1N=C(C2=C(C)NC(=O)NC2c2ccc(F)cc2)OC1c1ccccc1 (stereo not drawn) has an EC50 (Candida albicans [9]) of 0.15 µg/mL (≈ 0.38 µM) and an EC50 (Aspergillus niger [10]) of 0.15 µg/mL (≈ 0.38 µM).

In the case of COc1cccc(/C=N/Nc2ncnc3[nH]ccc23)c1OC, the “inhibition zone (IZ)” value (Candida albicans [1]) is reported as 30 mm and the “inhibition zone (IZ)” value (Saccharomyces cerevisiae [2]) is reported as 24 mm.

For Cc1nc(Oc2ccc(C(=O)Nc3ccc(F)cc3)cc2)cc(C(F)(F)F)n1, the inhibition at 50 µg/mL (Botryosphaeria dothidea) was 85.9%.

With CCc1nnc2c(Nc3ccc(Br)cc3)nc3ccccc3n12 the “inhibition zone (IZ)” value [11] was 20 mm.

In the case of Fc1ccc(/C=N/c2ncnc3[nH]ccc23)cc1, the “inhibition zone (IZ)” value (Candida albicans [5]) is reported as 15 mm and the “inhibition zone (IZ)” value (Saccharomyces cerevisiae [6]) is reported as 13 mm.

CN(C)c1ccc(/C=N/c2ncnc3[nH]ccc23)cc1 was tested, and the “inhibition zone (IZ)” value (Candida albicans [5]) was 15 mm and the “inhibition zone (IZ)” value (Saccharomyces cerevisiae [6]) was 13 mm.

Cc1ccc(S(=O)(=O)Nc2nc(/N=N/c3c(N)nn4c(N)c(C#N)nnc34)cs2)cc1 was tested, and the MIC (Candida albicans [12]) was 6.25 µg/mL (≈ 13.7 µM).

For Cc1ccc(S(=O)(=O)Nc2nc(/N=N/c3c(N)nn4c(C)cc(C)nc34)cs2)cc1, the MIC (Candida albicans [12]) was 50 µg/mL (≈ 113 µM).

Cc1nc(-c2ccc(C(C)(C)C)cc2)sc1-c1ccnc(N[C@H]2CC[C@H](N)CC2)n1 gave an MIC (Candida albicans [13]) of 4 µg/mL.

CN(C)c1ccc(-c2cc(Br)c(O)nn2)cc1 was tested, and the “inhibition zone (IZ)” value (Trichophyton rubrum) was 15 mm.

For COC(=O)C1C(C(=O)OC)C(C(=O)c2ccc([N+](=O)[O-])cc2)N2N=C(c3ccc(Cl)cc3)C=CC12 (stereo not drawn), the “inhibition zone (IZ)” value (Candida albicans [7]) was 24 mm.

For CCc1nnc2c(Nc3ccc(C4=NNC(c5ccc(Cl)cc5)C4)cc3)nc3ccccc3n12 (stereo not drawn), the “inhibition zone (IZ)” value (Aspergillus fumigatus) was 22 mm.

In the case of COc1ccc(OC)c(/C=N/Nc2ncnc3[nH]ccc23)c1, the “inhibition zone (IZ)” value (Candida albicans [1]) is reported as 30 mm and the “inhibition zone (IZ)” value (Saccharomyces cerevisiae [2]) is reported as 24 mm.

Fc1ccccc1/C=N/c1ncnc2[nH]ccc12 was tested, and the “inhibition zone (IZ)” value (Candida albicans [5]) was 15 mm and the “inhibition zone (IZ)” value (Saccharomyces cerevisiae [6]) was 13 mm.

In the case of Cc1nc(-c2ccc(C(C)(C)C)cc2)sc1-c1ccnc(N[C@H]2CCCC[C@@H]2N)n1, the MIC (Candida albicans [13]) is reported as 4 µg/mL.

For Nc1nc(=S)[nH]c(N)c1C1=NC2=Nc3ccccc3C2=N1, the “inhibition zone (IZ)” value (Aspergillus flavus) was 14 mm.

In the case of Nc1nc2ccccc2nc1NC1CC(C(=O)O)=CC1=O (stereo not drawn), the MIC50 (Candida albicans [8]) is reported as 0.78 µg/mL (≈ 2.74 µM), the MIC (Pichia kudriavzevii) is reported as 0.78 µg/mL (≈ 2.74 µM) and the MIC (Candida parapsilosis) is reported as 0.78 µg/mL (≈ 2.74 µM). It also gave an MIC (Nakaseomyces glabratus) of 0.78 µg/mL (≈ 2.74 µM).
